Measurements: US20090117199A1, “Method of treatment of cancer” (priority 1998, published 2009)
Like-named read-outs stand apart in the source and are kept apart here.

Key:
[1] = Partitioning coefficient of RB, 1-octanol/0.9% saline, effect of pH
Method: The partition coefficient of RB was assessed over a range of pH values. The experiments were conducted by titrating RB solutions, measuring pH, then placing aliquots of the solutions into vials containing both organic (1-octanol) and aqueous (0.9% saline) phases. After mixing, the agents were allowed to partition for approximately 1 day. Based on absorption measurements (at the same wavelengths used in Experiment 1), the percentage of agent in each phase, the Kp and LogD (log of Kp) was reported.
Experiment 1 was conducted using a stock solution of 0.42 mg/mL RB, whereas Experiment 3 was conducted using a concentration of 0.08 mg/mL.

[2] = tested on: A375 human melanoma xenograft tumors; settings: for #CR + #PR/SD (%): number (percent); for MST ± SEM (mean survival time to 2.0 g tumor): single injection
Method: The effects of a single IL injection of RB into A375 human melanoma xenograft tumors growing in nude mice were evaluated.
Chemoablation studies were conducted using female nu/nu mice (Harlan), 6-9 weeks of age and approximately 20 g at study Day 1.
Each mouse in Chemoablation study groups received a single subcutaneous implantation of the A375 melanoma tumor line. This consisted of implantation of either (1) a 1 mm^3 fragment of tissue in the flank or (2) subcutaneous injection of 100 μL of an A375 cell suspension into the flank. Treatment was initiated when the implanted tumor reached a size of approximately 70 mg (where tumor weight, in mg, was estimated using the formula (w^2×l)/2 in which w is width, and l is length in mm of the tumor).
RB (Aldrich product No. W1843) in isotonic saline; concentrations of 0.1% RB, 1%, RB, 1%, RB, 6% RB and 10% RB (w/v) was studied. Saline was used for the injection control group.
Treatment Plan: Mice were divided into treatment groups on study Day 1. RB treatment groups received a single IL injection of 0.1 mL RB in saline; the injection control group received a single IL injection of 0.1 mL saline. Growth control and sham treatment groups received no injection. All dosing was performed on Study Day 1. Follow up examination of the mice was conducted at regular intervals, and the test terminated on either Study day 65 or Study Day 85.
Each animal was euthanized when its A375 neoplasm reached a size of 2.0 g.
Treatment was assessed for occurrence of complete tumor regression (CR), partial tumor regression (PR) or stable disease (SD). The duration of CR, PR, or SD response was recorded throughout each study.
The Log-Rank test was used to determine the statistical significance of any difference in survival experienced between treatment and control groups. […] SigmaStat 3.0 (SPSS Inc) was used for all statistical analysis. Graphs were prepared using sigmaStat 3.0 or sigma Plot 2000 (SPSS Inc.) ver 6.00.

MCF-7 [ER+] tumors = assay: Tumor response to IL 10% RB in saline, report 020110.01B; assay type: in vivo, BALB/c Nude Mice; settings: 10% RB IL 25-50 μL/tumor Qd × 1; within 21 days; 4/group
T-47D [ER−] tumors = assay: as above; assay type: in vivo, BALB/c Nude Mice; settings: 10% RB IL 25-50 μL/tumor Qd × 1; long passage T-47D [ER−]; 4/group
[3] = tested on: spontaneous breast tumors; assay: Tumor response to IL 10% RB in saline, report 020626.01C; assay type: in vivo, Neu+/+ x (1988A2Kb x Neu+/+) mice; settings: 10% RB IL 50 μL/tumor Qd × 1
[4] = tested on: H69Ar human resistant SCLC tumors; assay: Tumor response to IL 10% RB in saline, report 051017.01B; assay type: in vivo, Nu/nu Nude Mice; settings: 10% RB 45 μL/tumor Qd × 1; 24 hours post injection and over 7 days of observation
[5] = tested on: PC-3 human prostate tumors; assay: Tumor response to IL 10% RB in saline, report 051017.02B; assay type: in vivo, Nu/nu Nude Mice; settings: 10% RB 45 μL/tumor Qd × 1; 24 hours post injection and over 29 days of observation

Structure (SMILES): O=C([O-])c1c(Cl)c(Cl)c(Cl)c(Cl)c1-c1c2cc(I)c(=O)c(I)c-2oc2c(I)c([O-])c(I)cc12.[Na+].[Na+] [RB, 4,5,6,7-Tetrachloro-2′,4′,5′,7′-tetraiodofluorescein]
- solubility [1]: 195 µg/mL
- partitioning coefficient versus pH ([1]; below a pH of about 4.4): rapidly increases
- solubility of RB in the aqueous phase ([1]; below a pH of about 4.4 (lactone form)): almost complete insolubility
- partitioning coefficient versus pH ([1]; pH range about 4 to about 10, 1-octanol/0.9% saline): consistent
- tumor growth response ([2]; 0.1% RB (Group C)): qualitatively and statistically equivalent to the control groups
- #CR ([2]; 0.1% RB, 5 mg/kg, IL, N=5): 0
- #PR/SD ([2]; 0.1% RB, 5 mg/kg, IL, N=5): 0
- #CR + #PR/SD (%) ([2]; 0.1% RB, 5 mg/kg, IL, N=5): 0 (0)
- MST ± SEM (mean survival time to 2.0 g tumor) ([2]; 0.1% RB, 5 mg/kg, IL, N=5): 27.0 ± 3.0 (5) days
- clinical response of tumors ([2]; 1% RB and higher, large fraction of tumors): localized tumor necrosis with rapid eschar formation
- #CR ([2]; 1% RB, 50 mg/kg, IL, N=12): 1
- #PR/SD ([2]; 1% RB, 50 mg/kg, IL, N=12): 1
- #CR + #PR/SD (%) ([2]; 1% RB, 50 mg/kg, IL, N=12): 2 (17)
- MST ± SEM (mean survival time to 2.0 g tumor) ([2]; 1% RB, 50 mg/kg, IL, N=12): 33.1 ± 4.5 (10) days
- composite response (damage+necrosis/2) and mean severity of necrosis of tumor tissue ([2]; 1%, 3% and 6% RB treatment groups): elevated
- #CR ([2]; 3% RB, 150 mg/kg, IL, N=17): 3
- #PR/SD ([2]; 3% RB, 150 mg/kg, IL, N=17): 3
- #CR + #PR/SD (%) ([2]; 3% RB, 150 mg/kg, IL, N=17): 6 (35)
- MST ± SEM (mean survival time to 2.0 g tumor) ([2]; 3% RB, 150 mg/kg, IL, N=17): 50.0 ± 7.0 (11) days
- survival versus growth controls ([2]; 6% RB (N=6), increased survival): not statistically different
- #CR ([2]; 6% RB, 300 mg/kg, IL, N=6): 1
- #PR/SD ([2]; 6% RB, 300 mg/kg, IL, N=6): 0
- #CR + #PR/SD (%) ([2]; 6% RB, 300 mg/kg, IL, N=6): 1 (17)
- MST ± SEM (mean survival time to 2.0 g tumor) ([2]; 6% RB, 300 mg/kg, IL, N=6): 35.4 ± 6.6 (5) days
- #CR ([2]; 10% RB, 500 mg/kg, IL, N=5): 1
- #PR/SD ([2]; 10% RB, 500 mg/kg, IL, N=5): 1
- #CR + #PR/SD (%) ([2]; 10% RB, 500 mg/kg, IL, N=5): 2 (40)
- MST ± SEM (mean survival time to 2.0 g tumor) ([2]; 10% RB, 500 mg/kg, IL, N=5): 52.2 ± 14.9 (3) days
- systemic toxicity ([2]; all tumour treatments, IL): well-tolerated
- tolerability of intralesional injection ([2]; concentrations up to 10% (500 mg/kg)): well tolerated by all animals
- residual RB in perilesional tissue ([2]; terminal sacrifice): no residual RB
- histology of tumor and peritumor tissue ([2]; terminal sacrifice, no dose-related trends): minimal perilesional inflammation and damage
- tumors completely ablated (MCF-7 [ER+] tumors): [ER+] (4/4), MCF-7 [ER−] (4/4),
- tumors ablated (T-47D [ER−] tumors): (3/4).
- tumor response [3]: IL RB ablated spontaneous breast
- tumors fully ablated [4]: IL RB fully ablated 5/5 tumors 24
- tumors fully ablated [5]: IL RB fully ablated 8/8 tumors 24
